Data: patent US12377110B2, “Fospropofol methods and compositions” (Epalex Corporation, priority 2019, dated 2025)
Where two headings read alike, the source gives them in different places.

How the values were obtained:
[1] = Study A16 Part 1: PK of single ascending oral doses of fospropofol disodium (200 to 2000 mg), fasted healthy adults; type: in vivo, human; details: for Tmax: read-out: Fospropofol Tmax
Protocol: Part 1 of Study A16 was a double-blind, randomized, placebo-controlled study to investigate the safety-tolerability and PK of oral administration of single ascending doses of fospropofol disodium to healthy adult male and female volunteers.
Subjects were healthy adults (age 18-55 years inclusive, BMI 18-29.9 kg/m^2). Separate cohorts of 12 subjects each were randomized to receive fospropofol disodium at doses of 200, 400, 800, 1000, 1200, 1600, or 2000 mg (n=10 per cohort) or matching placebo (n=2 per cohort).
Subjects were admitted to the clinical unit for an overnight fast (Day −1), administered study drug on Day 1, and remained in the clinical unit until Day 2.
Fospropofol disodium was formulated as powder in an HPMC capsule, each capsule containing 200 mg of fospropofol disodium (weight adjusted for water content). Placebo was administered as an appropriate number of matching capsules.
Based on PK results from the early cohorts, sampling times were optimized beginning with Cohort 3 (800 mg) to preclose, 5, 10, 15, 20, 25, 30, 37, and 45, minutes and 1, 2, 4, 6, and 9 hours after closing.

[2] = Study No. 15-4 toxicokinetics of fospropofol and propofol in plasma; type: in vivo, Beagle dogs; details: for Tmax: read-out: Fospropofol Tmax; for AUC(0-t): read-out: Fospropofol AUC0-6 hr
Protocol: The purpose of Study No. 15-4 (GLP) was to determine the potential toxicity of fospropofol in Beagle dogs when administered once daily by oral gavage for 14 days. […] Because the treatment-related clinical observations (consistent with the expected transient sedative actions of fospropofol) and effects on hematology and clinical chemistry parameters were considered nonadverse, the NOAEL was determined to be 160 mg/kg/day (3200 mg/m^2/day).

[3] = oral fospropofol disodium 1200 mg, Fasted (Cohort 5), n = 10, mean
[4] = subjects 301-312 (800 mg cohort)
[5] = female, beagle, dog, plasma, po, 50 mg/kg, oral gavage fospropofol disodium, Female, 50 mg/kg, Day 1
[6] = female, beagle, dog, plasma, po, 50 mg/kg, oral gavage fospropofol disodium, Female, 50 mg/kg, Day 14
[7] = female, beagle, dog, plasma, po, 100 mg/kg, oral gavage fospropofol disodium, Female, 100 mg/kg, Day 1
[8] = female, beagle, dog, plasma, po, 100 mg/kg, oral gavage fospropofol disodium, Female, 100 mg/kg, Day 14
[9] = female, beagle, dog, plasma, po, 160 mg/kg, oral gavage fospropofol disodium, Female, 160 mg/kg, Day 1
[10] = female, beagle, dog, plasma, po, 160 mg/kg, oral gavage fospropofol disodium, Female, 160 mg/kg, Day 14
[11] = male, beagle, dog, plasma, po, 50 mg/kg, oral gavage fospropofol disodium, Male, 50 mg/kg, Day 1
[12] = male, beagle, dog, plasma, po, 50 mg/kg, oral gavage fospropofol disodium, Male, 50 mg/kg, Day 14
[13] = male, beagle, dog, plasma, po, 100 mg/kg, oral gavage fospropofol disodium, Male, 100 mg/kg, Day 1
[14] = male, beagle, dog, plasma, po, 100 mg/kg, oral gavage fospropofol disodium, Male, 100 mg/kg, Day 14
[15] = male, beagle, dog, plasma, po, 160 mg/kg, oral gavage fospropofol disodium, Male, 160 mg/kg, Day 1
[16] = male, beagle, dog, plasma, po, 160 mg/kg, oral gavage fospropofol disodium, Male, 160 mg/kg, Day 14

For `CC(C)c1cccc(C(C)C)c1OCOP(=O)(O)O` [fospropofol, (2,6-diisopropylphenoxy)methyl dihydrogen phosphate], the “Fospropofol Cmax/mg FOSP DiNa” value ([1]; dose 1600 mg FOSPDiNa) was 6.40 (ng/mL)/mg, the “Fospropofol AUC0-T/mg FOSP DiNa” value ([1]; dose 2000 mg FOSPDiNa) was 5.41 (ng · h/mL)/mg and the “Fospropofol AUC0-∞/mg FOSP DiNa” value ([1]; dose 2000 mg FOSPDiNa) was 5.49 (ng · h/mL)/mg. For the same compound, the “Fospropofol Cmax/mg FOSP DiNa” value ([1]; dose 2000 mg FOSPDiNa) was 8.54 (ng/mL)/mg, the AUC ([1]; female, human, plasma, oral, 800 mg, females only (800 mg cohort), Mean, read-out: Fospropofol Auc1) was 3050 ng·h/mL and the AUC ([1]; female, human, plasma, oral, 800 mg, females only (800 mg cohort), Mean, read-out: Fospropofol Auc2) was 3710 ng·h/mL. It also gave an AUC ([1]; female, human, plasma, oral, 800 mg, females only (800 mg cohort), Mean, read-out: Fospropofol Auc4) of 3870 ng·h/mL, a Cmax ([1]; female, human, plasma, oral, 800 mg, females only (800 mg cohort), Mean, read-out: Fospropofol Cmax) of 6730 ng/mL and a Tmax ([1]; female, human, plasma, oral, 800 mg, females only (800 mg cohort), Mean) of 22.2 min. For the same compound, the AUC ([1]; female, human, plasma, oral, 800 mg, females only (800 mg cohort), individual subjects (Subject No. in c0), read-out: Fospropofol Auc1) was 4160 ng·h/mL, the AUC ([1]; female, human, plasma, oral, 800 mg, females only (800 mg cohort), individual subjects (Subject No. in c0), read-out: Fospropofol Auc2) was 5000 ng·h/mL and the AUC ([1]; female, human, plasma, oral, 800 mg, females only (800 mg cohort), individual subjects (Subject No. in c0), read-out: Fospropofol Auc4) was 5160 ng·h/mL. The Tmax ([1]; female, human, plasma, oral, 800 mg, females only (800 mg cohort), individual subjects (Subject No. in c0)) was 30 min, the “Fospropofol Auc1 CV (%)” value ([1]; females only (800 mg cohort)) was 23.3% and the “Fospropofol Auc2 CV (%)” value ([1]; females only (800 mg cohort)) was 23.1%. The “Fospropofol Auc4 CV (%)” value ([1]; females only (800 mg cohort)) was 23.3%, the “Fospropofol Cmax CV (%)” value ([1]; females only (800 mg cohort)) was 32.2% and the “Fospropofol Tmax CV (%)” value ([1]; females only (800 mg cohort)) was 27.3%. The “Fospropofol CL/F” value ([1]; oral fospropofol disodium 200 mg, mean) was 277 L/h, the “Fospropofol CL/F” value ([1]; oral fospropofol disodium 400 mg, mean) was 211 L/h and the “Fospropofol CL/F” value ([1]; oral fospropofol disodium 800 mg, mean) was 254 L/h. For the same compound, the “Fospropofol CL/F” value ([1]; oral fospropofol disodium 1000 mg, mean) was 229 L/h, the “Fospropofol AUC0-T” value [1, 3] was 4399 ng·h/mL and the “Fospropofol CL/F” value [1, 3] was 288 L/h. The “Fospropofol CL/F” value ([1]; oral fospropofol disodium 1200 mg, mean) was 288 L/h, the “Fospropofol CL/F” value ([1]; oral fospropofol disodium 1600 mg, mean) was 270 L/h and the “Fospropofol CL/F” value ([1]; oral fospropofol disodium 2000 mg, mean) was 204 L/h. The “Fospropofol AUC1 CV (%)” value [1, 4] was 23.6%, the “Fospropofol AUC2 CV (%)” value [1, 4] was 26.0% and the “Fospropofol AUC4 CV (%)” value [1, 4] was 27.2%. The “Fospropofol Cmax CV (%)” value [1, 4] was 30.7%, the “Fospropofol Tmax CV (%)” value [1, 4] was 29.2% and the “Sex differences in fospropofol Cmax or AUC0-6h” value ([2]; 50, 100, and 160 mg/kg/day for 14 days) was “no clear sex differences”. The Tmax ([2]; Beagle, dog, plasma, oral, range over all groups) was 5 to 60 min, the “Increase of fospropofol Cmax and AUC0-6hr with dose” value ([2]; Days 1 and 14, males and females (except females on Day 14)) was “less than close proportional” and the half-life ([2]; both sexes, Beagle, dog, plasma, oral, males and females, read-out: Fospropofol apparent individual terminal half-lives) was 18 to 36 min. The Cmax [2, 5] was 3680 ng/mL, the AUC(0-t) [2, 5] was 4710 ng·h/mL and the Tmax [2, 5] was 30 to 60 min. For the same compound, the Cmax [2, 6] was 3770 ng/mL, the AUC(0-t) [2, 6] was 5730 ng·h/mL and the Tmax [2, 6] was 30 to 60 min. The Cmax [2, 7] was 10100 ng/mL, the AUC(0-t) [2, 7] was 11900 ng·h/mL and the Tmax [2, 7] was 15 to 30 min. It also gave a Cmax [2, 8] of 9310 ng/mL, an AUC(0-t) [2, 8] of 15100 ng·h/mL and a Tmax [2, 8] of 30 to 60 min. For the same compound, the Cmax [2, 9] was 7380 ng/mL, the AUC(0-t) [2, 9] was 11200 ng·h/mL and the Tmax [2, 9] was 15 to 60 min. The Cmax [2, 10] was 12700 ng/mL, the AUC(0-t) [2, 10] was 16000 ng·h/mL and the Tmax [2, 10] was 15 to 60 min. The Cmax [2, 11] was 5130 ng/mL, the AUC(0-t) [2, 11] was 7710 ng·h/mL and the Tmax [2, 11] was 30 to 60 min. It also gave a Cmax [2, 12] of 3300 ng/mL, an AUC(0-t) [2, 12] of 4860 ng·h/mL and a Tmax [2, 12] of 30 to 60 min. The Cmax [2, 13] was 9480 ng/mL, the AUC(0-t) [2, 13] was 11700 ng·h/mL and the Tmax [2, 13] was 30 to 60 min. For the same compound, the Cmax [2, 14] was 6340 ng/mL, the AUC(0-t) [2, 14] was 6340 ng·h/mL and the Tmax [2, 14] was 15 to 60 min. It also gave a Cmax [2, 15] of 10000 ng/mL, an AUC(0-t) [2, 15] of 13500 ng·h/mL and a Tmax [2, 15] of 15 to 60 min. The Cmax [2, 16] was 6970 ng/mL, the AUC(0-t) [2, 16] was 9000 ng·h/mL and the Tmax [2, 16] was 4.98 to 60 min.
